# From US11096985B2, “Antimicrobial peptides, their variants and uses” (priority 2015, dated 2021)
# Tests used:
# Assay type in all cases: cell-based
# [1] = tested on: clinical strains of Acinetobacter johnsonii; settings: Acinetobacter johnsonii clinical strain 1; microdilution, Muller Hinton broth-cation adjusted, 0.02% BSA, 0.2% acetic acid
# Method: (§1) Minimum inhibition concentrations (MICs) were determined against Escherichia coli (ATCC 25922), Staphylococcus aureus (ATCC 25923), Klebsiella pneumoniae (ATCC 10031) and Pseudomonas aeruginosa (ATCC 27853). Also clinical strains of E. coli, K. pneumoniae, E. cloacae, P. aeruginosa, Serratia marcescens, Proteus mirabilis, S. pneumoniae, Acinetobacter baumannii, A. johnsonii and S. aureus were used for MICs assays. Additionally, clinical strains of yeast including Candida albicans, C. glabrata, C. parapsilosis and C. quillermondiae were used. The susceptibility of these microorganisms to Chain peptides were determined using micro broth dilution assay. Colonies of the respective microorganism from Muller Hinton (MH) agar plates incubated overnight were suspended in MH broth media and final concentration of microorganism was adjusted to 5.0×10^5 cfu/ml. An aliquot of 10 μl of each Chain peptide, or gentamicin, tetracycline as reference antibiotics were added in differing concentrations along with 90 μl of bacterial suspension to 96 well polypropylene plates and incubated at 37° C. for 20 to 24 hours. Concentrations of Chain peptides and reference antibiotics ranged from 0.125 to 128 μg/ml and the MICs were recorded as the lowest concentration with no visual growth of bacteria. Similarly, antifungal MICs were tested in Potato dextrose broth.
# (§2) Clinical strains of yeasts including Candida albicans, C. glabrata, C. parapsilosis and C. quillermondiae were also tested with the 12 Chain peptides. The minimum inhibitory concentration (MICs) varied between these peptides and are presented in Tables 4a, 4b, 4c and 5a, 5b, 5c. Peptides Chain 105, 201 and 308 are broad spectrum antimicrobials with MICs between 0.5-32 μg/ml against all the bacteria and yeasts tested, except Serratia marcescens and Proteus mirabilis, against which the MICs were between 64-128 μg/ml. Peptide Chain 306 has narrow spectrum activity against E.coli at 1 μg/ml and for the rest of the bacterial strains at >32 μg/ml (FIG. 10).
# [2] = tested on: clinical strains of Escherichia coli; assay: MIC, clinical strains of E. coli; parameters: unit: μg/ml; settings: microdilution, Muller Hinton broth-cation adjusted, 0.02% BSA, 0.2% acetic acid
# In short: (§3)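 Clinical isolates at 5.0×10^5 cfu/ml in Mueller-Hinton broth (Potato dextrose broth for yeasts) were exposed to Chain peptides at 0.125–128 μg/ml by broth microdilution, 37 °C for 20–24 h. MIC was the lowest concentration with no visible growth.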
# [3] = tested on: clinical strains of Staphylococcus aureus; assay: MIC, clinical strains of S. aureus; parameters: unit: μg/ml; settings: microdilution, Muller Hinton broth-cation adjusted, 0.02% BSA, 0.2% acetic acid
# In short: as §3
# [4] = tested on: clinical strains of Pseudomonas aeruginosa; assay: MIC, clinical strains of P. aeruginosa; parameters: unit: μg/ml; settings: microdilution, Muller Hinton broth-cation adjusted, 0.02% BSA, 0.2% acetic acid
# In short: as §3
# [5] = tested on: clinical strains of Klebsiella pneumoniae; assay: MIC, clinical strains of K. pneumoniae; parameters: unit: μg/ml; settings: microdilution, Muller Hinton broth-cation adjusted, 0.02% BSA, 0.2% acetic acid
# In short: as §3
# [6] = tested on: clinical strains of Enterobacter cloacae; assay: MIC, clinical strains of Enterobacter cloacae; parameters: unit: μg/ml; settings: microdilution, Muller Hinton broth-cation adjusted, 0.02% BSA, 0.2% acetic acid
# In short: as §3
# [7] = tested on: clinical strains of Serratia marcescens; assay: MIC, clinical strains of Serratia marcescens; parameters: unit: µg/mL; settings: microdilution, Muller Hinton broth-cation adjusted, 0.02% BSA, 0.2% acetic acid
# In short: as §3
# [8] = tested on: clinical strains of Proteus mirabilis; assay: MIC, clinical strains of Proteus mirabilis; parameters: unit: µg/mL; settings: microdilution, Muller Hinton broth-cation adjusted, 0.02% BSA, 0.2% acetic acid
# In short: as §3
# [9] = tested on: clinical strains of Streptococcus pneumoniae; assay: MIC, clinical strains of Streptococcus pneumoniae; parameters: unit: µg/mL; settings: microdilution, Muller Hinton broth-cation adjusted, 0.02% BSA, 0.2% acetic acid
# In short: as §3
# [10] = tested on: clinical strains of Acinetobacter baumannii; assay: MIC, clinical strains of Acinetobacter baumannii; settings: microdilution, Muller Hinton broth-cation adjusted, 0.02% BSA, 0.2% acetic acid
# Method: as §1, §2
substance,measurement,setting,value
Gentamicin [reference compound],Minimum inhibitory concentration,[1],0.25
same,Minimum inhibitory concentration,[2]; Escherichia coli clinical strain 1,0.5
same,Minimum inhibitory concentration,[2]; Escherichia coli clinical strain 2,0.5
same,Minimum inhibitory concentration,[2]; Escherichia coli clinical strain 3,1
same,Minimum inhibitory concentration,[2]; Escherichia coli clinical strain 4,1
same,Minimum inhibitory concentration,[2]; Escherichia coli clinical strain 5,1
same,Minimum inhibitory concentration,[3]; Staphylococcus aureus clinical strain 1,0.5
same,Minimum inhibitory concentration,[3]; Staphylococcus aureus clinical strain 2,0.5
same,Minimum inhibitory concentration,[3]; Staphylococcus aureus clinical strain 3,0.5
same,Minimum inhibitory concentration,[3]; Staphylococcus aureus clinical strain 4,0.5
same,Minimum inhibitory concentration,[3]; Staphylococcus aureus clinical strain 5,0.5
same,Minimum inhibitory concentration,[4]; Pseudomonas aeruginosa clinical strain 1,1
same,Minimum inhibitory concentration,[4]; Pseudomonas aeruginosa clinical strain 2,0.5
same,Minimum inhibitory concentration,[4]; Pseudomonas aeruginosa clinical strain 3,0.5
same,Minimum inhibitory concentration,[4]; Pseudomonas aeruginosa clinical strain 4,0.5
same,Minimum inhibitory concentration,[4]; Pseudomonas aeruginosa clinical strain 5,0.25
same,Minimum inhibitory concentration,[5]; Klebsiella pneumoniae clinical strain 1,2
same,Minimum inhibitory concentration,[5]; Klebsiella pneumoniae clinical strain 2,0.25
same,Minimum inhibitory concentration,[5]; Klebsiella pneumoniae clinical strain 3,2
same,Minimum inhibitory concentration,[5]; Klebsiella pneumoniae clinical strain 4,2
same,Minimum inhibitory concentration,[5]; Klebsiella pneumoniae clinical strain 5,4
same,Minimum inhibitory concentration,[6]; Enterobacter cloacae clinical strain 1,0.25
same,Minimum inhibitory concentration,[6]; Enterobacter cloacae clinical strain 2,0.25
same,Minimum inhibitory concentration,[6]; Enterobacter cloacae clinical strain 3,0.25
same,Minimum inhibitory concentration,[6]; Enterobacter cloacae clinical strain 4,0.25
same,Minimum inhibitory concentration,[6]; Enterobacter cloacae clinical strain 5,0.25
same,Minimum inhibitory concentration,[7]; Serratia marcescens clinical strain 1,1
same,Minimum inhibitory concentration,[7]; Serratia marcescens clinical strain 2,2
same,Minimum inhibitory concentration,[7]; Serratia marcescens clinical strain 3,1
same,Minimum inhibitory concentration,[7]; Serratia marcescens clinical strain 4,1
same,Minimum inhibitory concentration,[7]; Serratia marcescens clinical strain 5,1
same,Minimum inhibitory concentration,[8]; Proteus mirabilis clinical strain 1,2
same,Minimum inhibitory concentration,[8]; Proteus mirabilis clinical strain 2,2
same,Minimum inhibitory concentration,[8]; Proteus mirabilis clinical strain 3,>128
same,Minimum inhibitory concentration,[8]; Proteus mirabilis clinical strain 4,8
same,Minimum inhibitory concentration,[8]; Proteus mirabilis clinical strain 5,>128
same,Minimum inhibitory concentration,[9]; Streptococcus pneumoniae clinical strain 1,2
same,Minimum inhibitory concentration,[9]; Streptococcus pneumoniae clinical strain 2,2
same,Minimum inhibitory concentration,[9]; Streptococcus pneumoniae clinical strain 3,2
same,Minimum inhibitory concentration,[9]; Streptococcus pneumoniae clinical strain 4,2
same,Minimum inhibitory concentration,[9]; Streptococcus pneumoniae clinical strain 5,1
same,Minimum inhibitory concentration,[10]; Acinetobacter baumannii clinical strain 1,0.5
same,Minimum inhibitory concentration,[10]; Acinetobacter baumannii clinical strain 2,0.25
same,Minimum inhibitory concentration,[10]; Acinetobacter baumannii clinical strain 3,0.5
same,Minimum inhibitory concentration,[10]; Acinetobacter baumannii clinical strain 4,0.5
same,Minimum inhibitory concentration,[10]; Acinetobacter baumannii clinical strain 5,0.25
